In the oligonucleotide strings, read from the 5' end, every base follows the letter of its sugar. An asterisk marks phosphorothioate; unmarked linkages are phosphodiester. Other units and linkages are bracketed, terminal groups are in braces. A string of capitals states the bases alone. e = 2'-O-(2-methoxyethyl) (MOE); [5mC] = 5-methylcytosine
Tests used:
IL-12 mRNA = IL-12 mRNA in LPS-activated primary murine macrophages; format: cell-based, mouse; details: normalized to LPS-treated cells without oligomeric compound; for IL-12 mRNA expression, −IFN % UTC: 300 nM oligomeric compound and LPS, no IFN-gamma pretreatment, single experiment; for IL-12 mRNA expression, +IFN % UTC: 300 nM oligomeric compound, stimulation with IFN-gamma and LPS, average of 2 experiments
leptin = experiment: Leptin secretion by adipocytes (ELISA); format: cell-based, human; details: adipocytes, 250 nM oligomeric compound, day nine post-transfection, relative to control (1.0); Table 16
Description: Leptin secretion into the medium in which adipocytes are cultured is measured by protein ELISA. On day nine post-transfection, 96-well plates are coated with a monoclonal antibody to human leptin (R&D Systems, Minneapolis, Minn.) and left at 4° C. overnight. The plates are blocked with bovine serum albumin (BSA), and a dilution of the treated adipoctye medium is incubated in the plate at room temperature for approximately 2 hours. After washing to remove unbound components, a second monoclonal antibody to human leptin (conjugated with biotin) is added. The plate is then incubated with strepavidin-conjugated horse radish peroxidase (HRP) and enzyme levels are determined by incubation with 3, 3′,5,5′-tetramethlybenzidine, which turns blue when cleaved by HRP. The OD450 is read for each well, where the dye absorbance is proportional to the leptin concentration in the cell lysate.
Leptin is also a marker for differentiated adipocytes. In the adipocyte assay, leptin secretion into the media above the differentiated adipocytes was measured by protein ELISA. Cell growth, transfection and differentiation procedures were carried out as described for the Triglyceride accumulation assay (see below). On day nine post-transfection, 96-well plates were coated with a monoclonal antibody to human leptin (R&D Systems, Minneapolis, Minn.) and left at 4° C. overnight. The plates were blocked with bovine serum albumin (BSA), and a dilution of the media was incubated in the plate at RT for 2 hours. After washing to remove unbound components, a second monoclonal antibody to human leptin (conjugated with biotin) was added. The plate was then incubated with strepavidin-conjugated horseradish peroxidase (HRP) and enzyme levels are determined by incubation with 3, 3′, 5,5′-Tetramethlybenzidine, which turns blue when cleaved by HRP. The OD450 was read for each well, where the dye absorbance is proportional to the leptin concentration in the cell lysate. Results are expressed as a percent±standard deviation relative to transfectant-only controls.

[1] = system: BJ, B16-F10, T47D, T47Dp53 and HeLa cells; experiment: Cell cycle assay (propidium iodide flow cytometry), cell line panel; format: cell-based; details: for G1 (percentage of cells in phase of the cell cycle) / G2/M (percentage of cells in phase of the cell cycle) / S (percentage of cells in phase of the cell cycle) / SubG1 (percentage of cells in phase of the cell cycle) / aneuploid (percentage of cells): 150 nM oligomeric compound, 4.5 μg/ml LIPOFECTIN, after 72 hours, propidium iodide flow cytometry
preadipocytes = experiment: Caspase assay in preadipocytes; format: cell-based, human; details: for Fold Increase over UTC (caspase activity): untreated control set equal to 1.0
Source text: The effect of oligomeric compounds of the present invention targeting miRNAs was examined in preadipocytes (Zen-Bio, Inc., Research Triangle Park, N.C.) using the fluorometric caspase assay previously described in Example 11.

Row | Substance | IL-12 mRNA expression, −IFN % UTC (IL-12 mRNA) | IL-12 mRNA expression, +IFN % UTC (IL-12 mRNA) | Leptin (secretion) (leptin) | G1 (percentage of cells in phase of the cell cycle) [1] | G2/M (percentage of cells in phase of the cell cycle) [1] | S (percentage of cells in phase of the cell cycle) [1] | SubG1 (percentage of cells in phase of the cell cycle) [1] | aneuploid (percentage of cells) [1] | Fold Increase over UTC (caspase activity) (preadipocytes) | percentage of cells in the G2/M phase ([1]; 150 nM, 72 hours (Table 29)) | caspase activity (preadipocytes)
1 | 327889 (antisense eG*eT*eG*eG*eT*eA*eA*eT*e[5mC]*e[5mC]*e[5mC]*eT*eG*eG*e[5mC]*eA*eA*eT*eG*eT*eG*eA*eT) [compound 327889] | 153 % UTC | 10 % UTC | 1.05 | 53.1% | 14.4% | 32.5% | 8.2% | 10.5% | 1.1 fold over UTC | – | –
2 | 327931 (antisense eA*eA*e[5mC]*e[5mC]*eA*eT*eA*e[5mC]*eA*eA*e[5mC]*e[5mC]*eT*eA*e[5mC]*eT*eA*e[5mC]*e[5mC]*eT*e[5mC]*eA) [compound 327931] | 105 % UTC | 48 % UTC | 1.12 | – | – | – | – | – | 1.5 fold over UTC | – | –
3 | 327922 (antisense eT*e[5mC]*eA*eG*eT*eT*eT*eT*eG*e[5mC]*eA*eT*eG*eG*eA*eT*eT*eT*eG*e[5mC]*eA*e[5mC]*eA) [compound 327922] | – | – | 1.25 | 50.4% | 18.9% | 30.7% | 10% | 16.8% | 1.0 fold over UTC | – | –
4 | 327903 (antisense eA*eA*e[5mC]*eT*eA*eT*eA*e[5mC]*eA*eA*e[5mC]*e[5mC]*eT*eA*e[5mC]*eT*eA*e[5mC]*e[5mC]*eT*e[5mC]*eA) [compound 327903] | 200 % UTC | 23 % UTC | 1.61 | 53.7% | 15.4% | 30.9% | 11% | 13.4% | 1.6 fold over UTC | – | –
5 | 327888 (antisense eA*eA*eT*eG*e[5mC]*e[5mC]*e[5mC]*e[5mC]*eT*eA*eA*eA*eA*eA*eT*e[5mC]*e[5mC]*eT*eT*eA*eT) [compound 327888] | – | – | 1.38 | 53.7% | 16.7% | 29.5% | 13.3% | 12.9% | 1.1 fold over UTC | – | –
6 | 327901 (antisense eT*eG*eA*eG*e[5mC]*eT*eA*e[5mC]*eA*eG*eT*eG*e[5mC]*eT*eT*e[5mC]*eA*eT*e[5mC]*eT*e[5mC]*eA) [compound 327901] | 225 % UTC | 9 % UTC | 1.02 | 34.7% | 20.3% | 44.9% | 12% | 13.6% | 2.0 fold over UTC | – | –
7 | 327934 (antisense eG*eG*eT*eA*e[5mC]*eA*eA*eT*e[5mC]*eA*eA*e[5mC]*eG*eG*eT*e[5mC]*eG*eA*eT*eG*eG*eT) [compound 327934] | – | – | 1.25 | 54.4% | 17.4% | 28.2% | 6.6% | 17% | 2.0 fold over UTC | – | –
8 | TGAGCTACAGTGCTTCATCTCA [ISIS 327901] (chemistry not given here) [uniform 2′-MOE PS; targets mir-143] | – | – | – | – | – | – | – | – | – | increased percentage of cells in the G2/M phase | does not result in a significant increase in caspase activity
9 | 327893 (antisense eA*eA*e[5mC]*e[5mC]*eA*e[5mC]*eA*e[5mC]*eA*eA*e[5mC]*e[5mC]*eT*eA*e[5mC]*eT*eA*e[5mC]*e[5mC]*eT*e[5mC]*eA) [compound 327893] | 117 % UTC | 52 % UTC | 1.14 | – | – | – | – | – | 1.3 fold over UTC | – | –
10 | 327890 (antisense eA*eG*e[5mC]*eA*e[5mC]*eA*eA*eA*e[5mC]*eT*eA*e[5mC]*eT*eA*e[5mC]*e[5mC]*eT*e[5mC]*eA) [compound 327890] | 183 % UTC | 94 % UTC | 1.36 | – | – | – | – | – | 1.3 fold over UTC | – | –
11 | 327925 (antisense eT*eA*eG*e[5mC]*eT*eG*eG*eT*eT*eG*eA*eA*eG*eG*eG*eG*eA*e[5mC]*e[5mC]*eA*eA) [compound 327925] | 302 % UTC | 60 % UTC | 1.40 | – | – | – | – | – | 2.0 fold over UTC | – | –
12 | 327928 (antisense eA*eA*e[5mC]*e[5mC]*eG*eA*eT*eT*eT*e[5mC]*eA*eG*eA*eT*eG*eG*eT*eG*e[5mC]*eT*eA*eG) [compound 327928] | 201 % UTC | 61 % UTC | – | 56% | 16% | 27.9% | 6.6% | 15.9% | – | – | –
13 | 328129 (antisense eA*eG*e[5mC]*e[5mC]*eT*e[5mC]*e[5mC]*eT*eT*e[5mC]*eT*eT*e[5mC]*eT*e[5mC]*eG*eT*eA*e[5mC]*eT*eA) [compound 328129] | 87 % UTC | 10 % UTC | – | – | – | – | – | – | – | – | –
14 | 327905 (antisense e[5mC]*eA*eG*eA*e[5mC]*eT*e[5mC]*e[5mC]*eG*eG*eT*eG*eG*eA*eA*eT*eG*eA*eA*eG*eG*eA) [compound 327905] | – | – | 1.62 | 56.9% | 15% | 28.1% | 8.5% | 14.7% | 1.5 fold over UTC | – | –
15 | 327912 (antisense eA*eA*e[5mC]*eT*eA*eT*eA*e[5mC]*eA*eA*eT*e[5mC]*eT*eA*e[5mC]*eT*eA*e[5mC]*e[5mC]*eT*e[5mC]*eA) [compound 327912] | 206 % UTC | 39 % UTC | – | – | – | – | – | – | – | – | –
16 | 327956 (antisense e[5mC]*eA*e[5mC]*eA*eG*eT*eT*eG*e[5mC]*e[5mC]*eA*eG*e[5mC]*eT*eG*eA*eG*eA*eT*eT*eA) [compound 327956] | 212 % UTC | 59 % UTC | – | – | – | – | – | – | – | – | –
17 | 328138 (eG*eA*eG*e[5mC]*eT*eG*e[5mC]*eT*e[5mC]*eA*eG*e[5mC]*eT*eG*eG*e[5mC]*e[5mC]*eA*eT*e[5mC]*eA; anti-miR) [compound 328138] | 277 % UTC | 31 % UTC | – | – | – | – | – | – | – | – | –
18 | 327967 (antisense eA*e[5mC]*eT*eG*eT*eA*e[5mC]*eA*eA*eA*e[5mC]*eT*eA*e[5mC]*eT*eA*e[5mC]*e[5mC]*eT*e[5mC]*eA) [compound 327967] | 203 % UTC | 43 % UTC | 1.22 | – | – | – | – | – | 1.5 fold over UTC | – | –
19 | 327899 (antisense e[5mC]*eA*eG*eT*eG*eA*eA*eT*eT*e[5mC]*eT*eA*e[5mC]*e[5mC]*eA*eG*eT*eG*e[5mC]*e[5mC]*eA*eT*eA) [compound 327899] | 164 % UTC | 7 % UTC | – | – | – | – | – | – | – | – | –
20 | 328123 (antisense eT*eT*eA*e[5mC]*eA*eG*eG*eT*eG*e[5mC]*eT*eG*e[5mC]*eA*eA*e[5mC]*eT*eG*eG*eA*eA) [compound 328123] | 176 % UTC | 14 % UTC | – | – | – | – | – | – | – | – | –

Reference: patent publication US8178506B2, “Oligomeric compounds and compositions for use in modulation of small non-coding RNAs” (Regulus Therapeutics Inc., priority 2003, dated 2012)
